Experimental data taken from EP1226809B1, “SKIN TEXTURE-IMPROVING AGENTS” (KYOWA HAKKO KOGYO CO., LTD., priority 1999, dated 2001).
Where two headings read alike, the source gives them in different places.

Assays:
collagenase I (MMP-1) = conditions: 37°C, 4 hours
Procedure: Measurement of collagenase-inhibiting activity was carried out in the following manner according to the method described in Development and Application of Simple Microassay for Collagenase Activity; Nagai, et al., Inflammation, Vol. 4, p. 123-130, Nihon Igakukan (1984).
To 25 µl of a neutralization buffer (0.1 mol/l Tris hydrochloride, pH 7.5, 0.4 mol/l NaCl, 10 mmol/l CaCl2 and 0.04% NaN3) was added 25 µl of fluorescein isothiocyanate (FITC)-labeled collagen I (Cosmo Bio Co.) To the resulting mixture were further added 50 µl of collagenase I (MMP-1) (Cosmo Bio Co.) and a test sample dissolved in 10 µl of the neutralization buffer, followed by reaction at 37°C for 4 hours. To the reaction mixture was added 5 µl of a reaction terminating solution [80 mmol/l o-phenanthroline/50% (v/v) aqueous ethanol] to stop the reaction. To the resulting mixture was added 100 µl of a twice diluted neutralization buffer and the resulting mixture was allowed to stand at 35°C for 60 minutes. After cooling on ice for 5 minutes, 200 µl of 70% (v/v) aqueous ethanol was added to the mixture, followed by vigorous stirring for 5 minutes. The resulting mixture was centrifuged at 15,000 rpm at 4°C for 10 minutes to obtain the supernatant. By using a spectrophotofluorometer, the supernatant was irradiated with excitation light at 495 nm and emission light at 520 nm (A) was measured to determine the amount of decomposed collagen. The collagenase-inhibiting activity was calculated according to equation 4 by using data (B) obtained when purified water was employed in place of collagenase I and data (C) obtained when a neutralization buffer was employed in place of the test sample. Collagenase-inhibiting activity(%) = [(A)-(B)]/[(C)-(B)] × 100 [formula]

[1] = test system: Human neonate-derived fibroblasts; assay: Measurement of collagen synthesis-promoting activity on human fibroblasts (3H-glycine incorporation); format: cell-based; conditions: 300 µmol/l
Procedure: 201-271, Kodansha Scientific (1986).
Human neonate-derived fibroblasts (Sanko Junyaku Co., Ltd.) were suspended in DMEM containing 10% fetal bovine serum [Virology, 8, 396 (1959)] and cultured at 37°C in 5% CO2 to the stationary phase. To the resulting culture were added ^3H-labeled glycine and a test substance, followed by further culturing for 72 hours. After 500 µmol/l phenylmethanesulfonyl fluoride (PMSF) was added to the obtained culture, the cells and the medium were collected, followed by disruption with a sonicator to extract proteins. To the extract were added 100 µmol/l bovine serum albumin (BSA) and 10% trichloroacetic acid (TCA), and the resulting mixture was centrifuged at 3000 rpm for 5 minutes to collect the precipitate. […]
After the reaction mixture was separated by ultrafiltration (molecular weight: 10,000), the radioactivity of the protein fraction in the filtrate (CDP) was measured as the amount of newly synthesized collagen. Then, the radioactivity of the protein fraction which was not filtered (NCDP) was measured, and the collagen synthesis ratio was calculated according to equation 2. The relative collagen synthesis-promoting activity (the change in collagen synthesis) was calculated according to equation 3 as the relative value of the collagen synthesis ratio in the presence of a test substance based on the control. […]

Collagenase-inhibiting activity (%) (collagenase I (MMP-1); 1 µmol/l)	Collagenase-inhibiting activity (%) (collagenase I (MMP-1); 10 µmol/l)	Collagenase-inhibiting activity (%) (collagenase I (MMP-1); 100 µmol/l)	Collagenase-inhibiting activity (%) (collagenase I (MMP-1); 1 mmol/l)	SMILES	Relative collagen synthesis-promoting activity (%) ([1]; after 72 hours of culturing, control = 100)	amount of collagen synthesized ([1]; result in words, compared with control (=100%))
17	37	100		Oc1cc(O)c2c(c1)O[C@H](c1ccc(O)c(O)c1)[C@H](O)[C@H]2c1c(O)cc(O)c2c1O[C@H](c1ccc(O)c(O)c1)[C@H](O)[C@H]2c1c(O)cc(O)c2c1O[C@H](c1ccc(O)c(O)c1)[C@H](O)C2 [PC1, epicatechin-(4β→ 8)-epicatechin-(4β→8)-epicatechin]		
		69.4	100	Oc1cc(O)c2c(c1)O[C@H](c1ccc(O)c(O)c1)[C@H](O)[C@H]2c1c(O)cc(O)c2c1O[C@H](c1ccc(O)c(O)c1)[C@H](O)C2 [PB2, epicatechin-(4β→8)-epicatechin]	120.8	increased
